Legend:
HeLa cells = assay: Phosphorescence imaging and microplate-reader phosphorescence intensity of HeLa cells with added iridium complex; type: cell-based; conditions: for phosphorescence intensity in imaging under oxygen partial pressure of 2.5% (intracellular oxygen responsiveness): HeLa cells, 500 nM, 2 hours culture, 2.5% vs 21% oxygen; for phosphorescence intensity in HeLa cells (comparison between complexes): final concentration 500 nM, 2 hours of culture, imaging and microplate reader
Method: Luminescence micrograph: inverted research microscope, IX-71; manufactured by Olympus Corporation
(§1) Luminescence intensity, luminescence lifetime: microplate reader, Infinite 200 PRO; manufactured by TECAN.
Using the iridium complexes developed, imaging experiments for living cells were carried out. […] For quantitative evaluation, the phosphorescence intensity was measured using a microplate reader (FIG. 4).
For C6-BEDA and C545T-BEDA, intracellular oxygen responsiveness was evaluated. […] Further, as a result of measurement of the phosphorescence intensity using a microplate reader, it was shown that the phosphorescence intensity increases 3-fold or more under an oxygen partial pressure of 2.5% (FIG. 4).

[1] = Photophysical properties of iridium complexes in a solution (absorption, phosphorescence spectrum, quantum yield, lifetime); type: physicochemical; conditions: for maximum absorption wavelength λabs / maximum emission (phosphorescence) wavelength λphos / molecular extinction coefficient ε: in acetonitrile at room temperature; for molecular extinction coefficient ε: at λabs; for phosphorescence lifetime τp / phosphorescence quantum yield Φp: in acetonitrile, under deoxidized conditions
Description: Photophysical properties of the phosphorescence of the compound represented by General Formula (I) or (II), such as the maximum absorption/phosphorescence wavelength, the phosphorescence quantum yield (Φp), and the phosphorescence lifetime (τp), can be measured by known measurement methods. For example, the maximum absorption/phosphorescence wavelength can be measured using a spectrophotometer or the like, and the phosphorescence quantum yield can be measured using a luminescence quantum yield measurement apparatus or the like, for a sample in which the compound represented by General Formula (I) or (II) is dissolved in a solvent or the like. Regarding the phosphorescence lifetime, the […] (τp) of the compound in each solvent can be measured using a phosphorescence lifetime measurement apparatus.
Absorption spectrum: ultraviolet and visible spectrophotometer, Ubest-550; manufactured by JASCO Corporation
Phosphorescence spectrum: multichannel spectroscope, PMA-12; manufactured by Hamamatsu Photonics K. K.
Phosphorescence quantum yield: luminescence quantum yield measurement apparatus, C9920-01; manufactured by Hamamatsu Photonics K. K.
Phosphorescence lifetime: compact fluorescence lifetime measurement apparatus, Quantaurus-Tau; manufactured by Hamamatsu Photonics K.K.
The maximum absorption wavelength (λabs) was found at 473 to 499 nm, and the molecular extinction coefficient (ε/dm^3 mol^−1 cm^−1) was not less than 70,000 dm^3 mol^−1 cm^−1. The maximum emission wavelength (λphos) was found at 577 to 622 nm. […] Therefore, the observed luminescence can be identified as a phosphorescence. […] These are higher quantum yields compared to those of the iridium complexes that have been reported so far.

kidney of a mouse = assay: Phosphorescence intensity and lifetime imaging (PLIM) of kidney of mouse after tail vein administration; type: in vivo; conditions: mouse under anesthesia, 250 nmol, excitation 488 nm
HT-29 cells = assay: Tracing of intracellular oxygen by phosphorescence lifetime of C6-BEDA in HT-29 cells using a plate reader; type: cell-based; conditions: for change of phosphorescence lifetime of C6-BEDA in cells after additive: C6-BEDA 500 nM, plate sealed with oil, excitation 480 nm, measurement 600 nm; for change of phosphorescence lifetime of C6-BEDA in cells after additive / change of intracellular oxygen partial pressure after additive: antimycin A 10 μM or FCCP 1 μM; for change of intracellular oxygen partial pressure after additive: converted from C6-BEDA phosphorescence lifetime with calibration curve
Method: as §1
Using a luminescence lifetime measurement mode of a commercially available plate reader, changes in the oxygen concentration in cells were traced. In a 96-well plate, HT-29 cells were plated at 50,000 cells/well, and cultured for 48 hours. Thereafter, C6-BEDA was added thereto to a final concentration of 500 nM, and culture was carried out for 2 hours. […] After sealing the plate with oil, the phosphorescence lifetime was measured using a plate reader (excitation wavelength, 480 nm; measurement wavelength, 600 nm; FIG. 6). The phosphorescence lifetime (τp/μs) was calculated using the following equation. τp=30/ln(W1/W2)
Here, W1 and W2 are the integrated values of the phosphorescence intensity obtained during the periods of 10 to 30 μs and 40 to 60 μs after the pulse excitation. In the cells to which no additive was added, the phosphorescence lifetime increased with time. […] This is due to the fact that intracellular oxygen consumption was stopped by the respiration inhibitory action of antimycin A, while intracellular oxygen consumption increased by the respiration-promoting action of FCCP. In order to convert the measured phosphorescence lifetime to the oxygen partial pressure, preparation of a calibration curve is necessary. Here, the calibration curve was prepared by measuring the phosphorescence lifetime at different oxygen partial pressures in the plate reader (pO2=1521.03225 exp(−τp/[…])) (FIG. 7).

liver of a mouse = assay: Phosphorescence lifetime imaging (PLIM) of liver of mouse after tail vein administration; type: in vivo; conditions: mouse under anesthesia, 250 nmol, excitation 488 nm
Method: Subsequently, the in vivo dynamics was evaluated. In the present experiment, a microscope capable of acquiring a phosphorescence lifetime image as well as a phosphorescence intensity image (PLIM: phosphorescence lifetime imaging microscope) was used. To the tail vein of a mouse under anesthesia, 250 μL of a solution of C6-MEDA or C6-BEDA (physiological saline:DMSO=9:1, v/v, 250 nmol) was administered to carry out a phosphorescence intensity imaging experiment and a phosphorescence lifetime imaging experiment (excitation wavelength, 488 nm; monitoring wavelength, 510 to 560 nm). […] The liver is composed of functional units called hepatic lobules. Arteries and portal veins are present in the periphery of hepatic lobules, and veins are present in the center. It has thus been pointed out that there is a gradient of the oxygen partial pressure from the periphery to the center. […] It can be seen that the area with a short lifetime (which is blue in the color image) corresponds to the periphery of hepatic lobules, and that the area with a long lifetime (which is orange in the color image) corresponds to the area near the central vein.

maximum absorption wavelength λabs [1] [nm] | maximum emission (phosphorescence) wavelength λphos [1] [nm] | molecular extinction coefficient ε [1] | phosphorescence lifetime τp [1] [μs] | phosphorescence quantum yield Φp [1] | Molecule | phosphorescence intensity in imaging under oxygen partial pressure of 2.5% (intracellular oxygen responsiveness) (HeLa cells) | phosphorescence intensity in HeLa cells (comparison between complexes) (HeLa cells) | imaging of kidney (kidney of a mouse) | change of phosphorescence lifetime of C6-BEDA in cells after additive (HT-29 cells) | change of intracellular oxygen partial pressure after additive (HT-29 cells) | suitability as probe for intracellular oxygen concentration (HT-29 cells; 500 nM, plate reader) | phosphorescence lifetime imaging of liver (liver of a mouse)
481 | 593 | 103,000 dm^3mol^−1cm^−1 | 38.7 | 0.75 | Bis[3-(benzo[d]thiazol-2-yl)-7-(diethylamino)-2H-chromen-2-one-κN, κC^4]N^1,N^2-dimethylethane-1,2-diamine iridium(III) hexafluorophosphate [C6-MEDA] |  |  | Renal tubular cells could be clearly imaged |  |  |  | 
 |  |  |  |  | antimycin A |  |  |  | hardly changed | slight increase in the oxygen partial pressure |  | 
473 | 577 | 91,700 dm^3mol^−1cm^−1 | 38.9 | 0.82 | Bis[3-(benzo[d]thiazol-2-yl)-7-(diethylamino)-2H-chromen-2-one-κN, κC^4]ethane-1,2-diamine iridium(III) hexafluorophosphate [C6-EDA] |  |  |  |  |  |  | 
482 | 594 | 106,000 dm^3mol^−1cm^−1 | 34.8 | 0.65 | Bis[3-(benzo[d]thiazol-2-yl)-7-(diethylamino)-2H-chromen-2-one-κN, κC^4]N^1,N^2-dibutylethane-1,2-diamine iridium(III) hexafluorophosphate [C6-BEDA] | remarkable increases in the phosphorescence intensity | exhibit higher phosphorescence intensities |  |  |  | capable of real-time tracing of changes in the intracellular oxygen concentration | the presence of the gradient of the phosphorescence lifetime can be seen
 |  |  |  |  | N#CC(C#N)=NNc1ccc(OC(F)(F)F)cc1 [FCCP] |  |  |  | remarkably increased | rapid decrease in the oxygen partial pressure |  | 

Molecule | maximum absorption wavelength λabs [1] [nm] | maximum emission (phosphorescence) wavelength λphos [1] [nm] | molecular extinction coefficient ε [1] | phosphorescence lifetime τp [1] [μs] | phosphorescence quantum yield Φp [1] | phosphorescence intensity in imaging under oxygen partial pressure of 2.5% (intracellular oxygen responsiveness) (HeLa cells) | phosphorescence intensity in HeLa cells (comparison between complexes) (HeLa cells) | imaging of kidney (kidney of a mouse) | change of phosphorescence lifetime of C6-BEDA in cells after additive (HT-29 cells) | change of intracellular oxygen partial pressure after additive (HT-29 cells) | suitability as probe for intracellular oxygen concentration (HT-29 cells; 500 nM, plate reader) | phosphorescence lifetime imaging of liver (liver of a mouse)
CC1(C)CCN2CCC(C)(C)c3c2c1cc1[c-]c(-c2nc4ccccc4s2)c(=O)oc31.CC1(C)CCN2CCC(C)(C)c3c2c1cc1[c-]c(-c2nc4ccccc4s2)c(=O)oc31.CCCCNCCNCCCC.F[P-](F)(F)(F)(F)F.[Ir+3] [C545T-BEDA, Bis[10-(benzo[d]thiazol-2-yl)-1,1,7,7-tetramethyl-2,3,6,7-tetrahydro-1H-pyrano [2,3-f]pyrido[3,2,1-ij]quinolin-11(5H)-one-κN, κC^4]N^1,N^2-dibutylethane-1,2-diamine iridium(III) hexafluorophosphate] | 499 | 622 | 90,600 dm^3mol^−1cm^−1 | 53.7 | 0.40 | remarkable increases in the phosphorescence intensity | exhibit higher phosphorescence intensities |  |  |  |  | 
CC1(C)CCN2CCC(C)(C)c3c2c1cc1[c-]c(-c2nc4ccccc4s2)c(=O)oc31.CC1(C)CCN2CCC(C)(C)c3c2c1cc1[c-]c(-c2nc4ccccc4s2)c(=O)oc31.CNCCNC.F[P-](F)(F)(F)(F)F.[Ir+3] [C545T-MEDA, Bis[10-(benzo[d]thiazol-2-yl)-1,1,7,7-tetramethyl-2,3,6,7-tetrahydro-1H-pyrano [2,3-f]pyrido[3,2,1-ij]quinolin-11(5H)-one-κN, κC^4]N^1,N^2-dimethylethane-1,2-diamine iridium(III) hexafluorophosphate] | 496 | 621 | 77,000 dm^3mol^−1cm^−1 | 46.5 | 0.36 |  |  |  |  |  |  | 

— patent publication US12454541B2, “Reagent for measuring oxygen concentration in cell and tissue” (NATIONAL UNIVERSITY CORPORATION GUNMA UNIVERSITY, priority 2019, dated 2025)
